In experiment [1] the target is T1, human CIC-1 channels (Homo sapiens, UniProt P35523).
T1 construct: host or cells: CHO (Chinese hamster ovary) cells
Briefly: Automated patch-clamp on human CIC-1 expressed in CHO cells. The class given is cell-based. As to conditions: compound added to the intracellular solution vs vehicle control patches; positive shift reflects CIC-1 inhibition. As for the experimental part:
The investigatory goal of these experiments was to evaluate how compounds affect the open probability and current amplitude of human CIC-1 channels expressed in CHO cells. Experiments were performed using an automated patch clamp system that allowed high throughput testing of whole cell patches together with both intracellular and extracellular addition of compound.
Automated whole cell patch clamp experiments were performed with the Qpatch 16 system (Sophion Bioscience, Ballerup, Denmark) at room temperature. Data acquisition and analysis were performed in the Qassay software (ver. 5.6, Odense).
To evoke CIC-1 currents in whole cell patches, the membrane potential was initially stepped from a holding potential of −30 mV to +60 mV for 100 ms and then to various test voltages (sweeps) ranging from +120 mV to −140 mV in steps of 20 mV for 300 ms. To obtain tail currents, the membrane potential was stepped to −100 mV after each test voltage for 300 ms and then relaxed to −30 mV for 2 sec between sweeps (FIG. 3). I/V relationships for whole cell instant and steady state current amplitudes were obtained by plotting average current densities at the beginning and at the end of the 300 ms step against the membrane potential (FIG. 4).
In order to determine the relative overall open probability (P0), the instantaneous tail currents were normalized to the maximal tail current obtained following the most positive voltage step and plotted against the test voltage. Plots of normalized tail currents from each whole cell patch were then fitted to a Boltzmann function allowing determination of half activation voltages (V1/2, FIG. 5).
For automated patch clamp experiments extracellular solutions contained: 2 mM CaCl2, 1 mM MgCl2, 10 mM HEPES, 4 mM KCl, 145 mM NaCl, 10 mM Glucose, pH adjusted to 7.4 with NaOH (2 M). Osmolality adjusted to ˜320 using sucrose.
Intracellular solutions contained: 80 mM CsF, 60 mM CsCl, 5/1 mM KOH/EGTA, 10 mM HEPES, 10 mM NaCl, pH adjusted to 7.2 with NaOH (2 M). Osmolality adjusted to ˜320 mOsm using sucrose.
Cells used in patch clamp experiments were Chinese hamster ovary cells (CHO) constitutively expressing human CIC-1 channels. The amino acid sequence encoded by the cDNA used to create this cell line was identical to the translated sequence for GenBank accession number NM_000083.2. Cells were produced by Charles River (Catalogue CT6175, Cleveland Ohio, USA) in a cryopreserved format. Experiments were performed on the cells directly after thawing (3×10^6 cells used in each experiment).
To evaluate the compound effect on CIC-1, when applied directly to the intracellular side of the cell membrane, the half activation voltage, V1/2, was determined from whole cell patches with compound added to the intracellular solution and then compared to V1/2 determined from control cell patches with only vehicle added to the intracellular solution. Additionally, the effect of extracellular added compound was evaluated by determine V1/2 and steady state current amplitudes before and after exchanging the extracellular solution to contain compound.
The difference in half activation voltage of CIC-1 channels, […]V1/2, was determined as the difference between the cell patches treated intracellularly with compound and control cells patches and is reported in Table 4 below. A positive shift in […]V1/2 is reflecting CIC-1 channel inhibition by the tested compound. P-values of <0.05 is considered significant.
A general note: The patch-clamp technique gives a direct electrical read-out from membranes.

In experiment [2] the test system is Lewis rats. Briefly: In situ muscle contractile characteristics: isometric hindlimb force under cisatracurium infusion. The class given is in vivo, rat. To be noted: 21.5 mg/kg i.v.; 12 Hz; 3 experiments. As for the experimental part:
Isometric hindlimb force was measured in 12-week old female Lewis rats in the presence and absence of compound.
Rats were placed under anesthesia with isoflurane (2-4%), intubated and subsequently connected to a micro ventilator (Microvent 1, Hallowell EMC, US). Two stimulation electrodes were inserted through the skin to stimulate the sciatic nerve. A small incision was made proximal to the ankle, to expose the Achilles tendon, which was tied by cotton string, and connected to a force transducer (Fort250, World Precision Instruments) with adjustable position (Vernier control). The Achilles tendon was then cut distal to the attached cotton string. […]
Muscle contractile properties were assessed by applying an electrical current (under supramaximal voltage conditions) to the nerve and recording the force generated by the muscle. The muscle was stretched until maximal force was obtained, when assessed by 2 Hz stimulation. Isometric force was measured every 30 seconds at 12 Hz (Twitch), 10 pulses, and at every 5 minutes at 80 Hz (Tetanic) for 1 second (80 pulses). […] The effect of test article was assessed on its ability to increase force generated from the stimulation pattern applied. The effect was assessed in the ability to increase force per se (tetanic, 80 Hz, stimulation), and the ratio between individual twitch peaks (12 Hz stimulation). […]

For experiment [3], the system named is isolated rat soleus muscles. Briefly: Recovery of nerve-stimulated force in isolated rat soleus muscles exposed to sub-maximal tubocurarine. To be noted: Rattus norvegicus, 40 min; read-out: 50 μM % change after addition. As for the experimental part: Experiments were performed using rat soleus muscles from either young (4-wk-old) or adult Wistar rats (12-14-week-old). Animal handling, killing and isolation of muscle is described elsewhere All experiments were performed using normal Krebs-Ringer bicarbonate solution (NKR). In solutions with elevated Mg^2+, MgCl2 was added to NKR-solution causing minor increases in osmolarity and ionic strength. In solutions with elevated K^+, 4 mM NaCl was replaced by 4 mM KCl in the NKR.
In all contraction experiments, isometric force production was determined and force produced during contractions was quantified by measuring the integral of the force response (AUC). Stimulation and force recordings have been described elsewhere. […] In these latter experiments, extracellular recordings of action potentials (M-waves) could be measured without temporal overlap with stimulation artefacts.
The aim was to find compounds that by inhibition of CIC-1 channels can recover nerve-stimulated force under conditions of fatigue including conditions where fatigue is caused by compromised neuromuscular transmission. Neuromuscular transmission dysfunction can develop because of both pre- and/or post-synaptic complications in connection with a disorder or as part of neuromuscular blockade during/after surgery. In the initial series of drug testing, experiments were performed with isolated muscles in the presence of sub-maximal ACh receptor antagonist tubocurarine. Since the inclusion of tubocurarine caused a partial loss of neuromuscular transmission this experiment mimics the conditions in myasthenia gravis and neuromuscular blockade. To mimic conditions with pre-synaptic complication (Lambert Eaton syndrome, motor neuron disorder, polyneuropathy) the intact nerve-muscle preparations were incubated at elevated extracellular Mg^2+, which is known to suppress release of ACh from nerve terminals of motor neurons.
To identify CIC-1 inhibitors that could be used for treatment of neuromuscular disorders we repeated the experiment shown in FIG. 2A but instead of adding 9-AC we added the compounds of interest in different concentrations within the range from 10 to 500 μM. […] For comparison with the muscle only exposed to tubocurarine (grey trace), the two traces have been overlaid. […] For comparison, muscles only exposed to tubocurarine have been included. The dotted line indicates the recovery of force with C8 when compared to the force production before its addition. This value was used in Table 1 for evaluation of the efficacy of the different compounds in recovering force.

Experiment [4] addresses T2, CIC-1 ion channels (Rattus norvegicus, UniProt P35524).
T2 construct: from tissue; host or cells: soleus muscle of adult (12-14 week old) Wistar rats
T2 sequence (P35524 1-994): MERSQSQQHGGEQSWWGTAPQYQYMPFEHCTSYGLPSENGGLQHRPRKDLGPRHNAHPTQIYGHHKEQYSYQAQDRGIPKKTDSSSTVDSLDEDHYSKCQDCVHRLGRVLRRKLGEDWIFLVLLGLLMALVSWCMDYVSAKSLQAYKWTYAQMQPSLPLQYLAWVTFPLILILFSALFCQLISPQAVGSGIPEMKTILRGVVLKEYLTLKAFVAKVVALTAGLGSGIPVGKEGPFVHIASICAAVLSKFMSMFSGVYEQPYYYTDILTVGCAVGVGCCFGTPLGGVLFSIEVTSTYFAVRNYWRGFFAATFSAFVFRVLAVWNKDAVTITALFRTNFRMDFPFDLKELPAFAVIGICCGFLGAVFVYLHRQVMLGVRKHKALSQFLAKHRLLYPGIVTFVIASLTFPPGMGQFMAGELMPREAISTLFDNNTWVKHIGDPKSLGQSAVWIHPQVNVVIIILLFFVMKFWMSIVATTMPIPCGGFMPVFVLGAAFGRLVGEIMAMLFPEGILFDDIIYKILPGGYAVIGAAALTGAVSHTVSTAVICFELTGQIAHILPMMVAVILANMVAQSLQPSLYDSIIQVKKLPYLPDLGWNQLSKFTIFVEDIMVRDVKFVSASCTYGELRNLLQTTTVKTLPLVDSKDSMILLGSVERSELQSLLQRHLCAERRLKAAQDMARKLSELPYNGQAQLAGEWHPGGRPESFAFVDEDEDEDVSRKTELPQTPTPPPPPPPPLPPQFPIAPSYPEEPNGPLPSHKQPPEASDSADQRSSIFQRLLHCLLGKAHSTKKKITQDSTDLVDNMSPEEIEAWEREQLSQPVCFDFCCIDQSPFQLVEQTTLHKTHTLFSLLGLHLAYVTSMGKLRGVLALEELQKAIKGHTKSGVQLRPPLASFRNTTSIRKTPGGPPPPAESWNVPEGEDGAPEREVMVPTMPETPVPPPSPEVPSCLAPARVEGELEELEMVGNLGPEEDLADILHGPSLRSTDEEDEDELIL
Briefly: Resting membrane conductance (Gm), three-electrode technique, rat muscle: Kd for CIC-1 inhibition. In kind it is cell-based. To be noted: concentration that reduced Gm by 50%.

T1 sequence (P35523 whole entry): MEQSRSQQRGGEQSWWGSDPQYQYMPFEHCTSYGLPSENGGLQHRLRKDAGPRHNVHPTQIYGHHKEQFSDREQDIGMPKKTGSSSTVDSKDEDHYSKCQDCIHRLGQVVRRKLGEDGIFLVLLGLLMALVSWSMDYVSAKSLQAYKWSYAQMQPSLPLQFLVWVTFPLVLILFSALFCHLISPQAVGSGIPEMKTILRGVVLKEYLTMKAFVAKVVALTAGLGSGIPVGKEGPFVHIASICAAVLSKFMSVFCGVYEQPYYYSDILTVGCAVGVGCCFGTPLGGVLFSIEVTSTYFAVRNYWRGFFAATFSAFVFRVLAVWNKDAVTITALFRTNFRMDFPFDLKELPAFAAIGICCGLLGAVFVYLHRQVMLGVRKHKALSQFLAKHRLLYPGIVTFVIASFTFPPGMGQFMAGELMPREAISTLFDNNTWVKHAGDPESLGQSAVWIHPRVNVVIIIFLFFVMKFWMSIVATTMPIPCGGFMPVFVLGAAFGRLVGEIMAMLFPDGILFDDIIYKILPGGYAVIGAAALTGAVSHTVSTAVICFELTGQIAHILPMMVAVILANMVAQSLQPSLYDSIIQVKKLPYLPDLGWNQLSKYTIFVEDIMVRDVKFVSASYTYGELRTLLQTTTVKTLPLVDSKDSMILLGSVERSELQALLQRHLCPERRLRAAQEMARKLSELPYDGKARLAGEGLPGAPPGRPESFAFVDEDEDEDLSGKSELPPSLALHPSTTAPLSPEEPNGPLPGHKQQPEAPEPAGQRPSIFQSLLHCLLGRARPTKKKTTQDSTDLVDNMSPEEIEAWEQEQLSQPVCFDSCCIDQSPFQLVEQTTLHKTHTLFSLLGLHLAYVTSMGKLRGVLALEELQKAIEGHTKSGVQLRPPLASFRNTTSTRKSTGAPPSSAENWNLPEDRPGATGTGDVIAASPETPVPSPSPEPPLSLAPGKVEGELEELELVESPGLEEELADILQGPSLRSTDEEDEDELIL

Regarding `C[C@H](Oc1ccc(Br)cc1C1CC1)C(=O)O` [Compound A-2, (2S)-2-(4-bromo-2-cyclopropylphenoxy)propanoic acid], the ΔV½ in experiment [1] turned out to be 9.2 mV. Further, in experiment [2], the “change in twitch peaks” value is on record as “no significant change”.

Take `CC(C)[C@H](Oc1ccc(Br)cc1)C(=O)O` [Compound C22, (2S)-2-(4-bromophenoxy)-3methylbutanoic acid]: the activation at 50 µM in experiment [3] was 16%. Also, in experiment [4], binding was characterised by a dissociation constant (Kd) of 4.1 µM.

Values taken from patent US20190183812A1, “Compounds For The Treatment Of Neuromuscular Disorders” (NMD PHARMA A/S, priority 2017, published 2019).
